What is called EC50 is the concentration needed to bring the measured effect to its halfway point. Broadly, the IC50 is the midpoint of a concentration-inhibition curve. A higher IC50 goes with a need for much substance.

Where a name gives a salt, the structure may show the parent alone. Bounds are passed on as bounds.

TAFIa, sequence (Q96IY4 115-423): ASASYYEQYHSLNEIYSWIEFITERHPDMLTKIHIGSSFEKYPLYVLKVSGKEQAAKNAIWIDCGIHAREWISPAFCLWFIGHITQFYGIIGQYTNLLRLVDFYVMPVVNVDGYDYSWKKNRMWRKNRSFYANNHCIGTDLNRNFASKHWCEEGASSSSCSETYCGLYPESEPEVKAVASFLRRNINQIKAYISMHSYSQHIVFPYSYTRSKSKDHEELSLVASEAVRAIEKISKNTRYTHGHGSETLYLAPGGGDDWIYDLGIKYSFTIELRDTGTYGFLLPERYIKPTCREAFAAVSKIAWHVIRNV

The test system of one experiment is normal human plasma. In words: Fibrinolysis enhancing activity by measurement of time of plasma clot lysis. In kind it is biochemical. The following applies: normal human plasma with tPA; concentration that achieves 50% of 1/2 LT. Here is the method: To a 96-well plate, 20 μL/well HBS, 50 μL/well normal human plasma, 10 μL/well compound solution (the compound solution was prepared by dissolving the compound in HBS, followed by serial dilution with this buffer), and 10 μL/well tPA (Activacin (Kyowa Hakko Kirin Co., Ltd.) was adjusted to 600,000 U/mL with a lysis solution included therein, followed by dilution with HBS) were added, and the mixture was stirred. Then, 10 μL/well reaction solution A (13.8 U/mL human thrombin, 170 mM CaCl2, and 0.9 U/mL thrombomodulin) was added thereto, and the mixture was stirred again. The absorbance at 405 nm was measured using a plate reader at 30-second intervals, with the temperature kept at 37° C. to measure the extent of coagulation. […] A concentration that achieves 50% of 1/2 LT was calculated as EC50 from the relationship between the concentration of the test substance and 1/2 LT. Compound A (compound of Example 7 in the pamphlet of International Publication No. WO 2002/014285) was used as a control.
As to `C[C@H]1CC[C@H](n2cnc(C[C@H](CCCN)C(=O)O)c2)CC1` [15(2S form), (2S)-5-Amino-2-{[1-(trans-4-methylcyclohexyl)-1H-imidazol-4-yl]methyl}valeric acid], the EC50 was determined as 12 nM.

In a further experiment the target is TAFIa (Homo sapiens (Human), UniProt Q96IY4). Put plainly: Determination of TAFIa enzyme inhibitory activity. In kind it is biochemical. The following applies: substrate furylacryloyl-alanyl-lysine (FAAK), absorbance at 330 nm. As for the experimental part:
HEPES buffered saline (20 mM HEPES, 150 mM NaCl, pH 7.4; hereinafter, referred to as HBS) was used in the preparation of a reaction solution. To 12 μL of a 250 μg/mL TAFI solution, 30 μL of an HBS solution containing 4 U/mL human thrombin, 12 U/mL rabbit lung thrombomodulin, and 12 mM CaCl2 was added, and the mixture was gently stirred. Then, TAFI was activated at room temperature. Ten minutes later, thrombin was neutralized by the addition of 10 μL of 100 μM PPACK (thrombin inhibitor) to terminate the activation of TAFI. The formed TAFIa was stored in ice and diluted immediately before use in determination with 2050 μL of an HBS solution containing BSA (bovine serum albumin) adjusted to 0.1% in terms of the final concentration.
A test substance was dissolved in HBS to prepare a 10-fold dilution series of evaluation concentrations. 80 μl, of the TAFIa solution and 10 μL of the test substance were added to each well of a 96-well plate and mixed by shaking for 10 minutes. 10 μL, of furylacryloyl-alanyl-lysine (FAAK) adjusted to 5 mg/mL was added to each well, and the change in the absorbance of this mixed solution at 330 nm was read for 30 minutes to determine the degradation rate of the substrate.
The degradation rate of the substrate in each well was applied to a standard curve prepared using the dilution series of the TAFIa solution to calculate TAFIa activity. The 50% inhibitory concentration (IC50) was calculated based on the correlation between the concentration of the test compound and the TAFIa activity. Compound A (compound of Example 7 in the pamphlet of International Publication No. WO 2002/014285) was used as a control.
`CC1(O)CCC(n2cnc(CC(CCCN)C(=O)O)c2)CC1` (stereo not shown) [Example 8, 5-Amino-2-{[1-(4-hydroxy-4-methylcyclohexyl)-1H-imidazol-4-yl]methyl}valeric acid] had an IC50 of 19 nM.
Compound `CC1CC(n2cnc(CC(CCCN)C(=O)O)c2)C1` (stereo not shown) [Example 5, 5-Amino-2-{[1-(3-methylcyclobutyl)-1H-imidazol-4-yl]methyl}valeric acid] gave an IC50 of 36 nM.
On the same count and under the same terms, for `CC1(C)CCCC(n2cnc(CC(CCCN)C(=O)O)c2)C1` (stereo not shown) [Example 33, 5-Amino-2-{[1-(3,3-dimethylcyclohexyl)-1H-imidazol-4-yl]methyl}valeric acid] the value was 7.5 nM.
For the compound `CCC(CN)CC(Cc1cn([C@H]2CC[C@H](C)CC2)cn1)C(=O)O` (stereo partly drawn) [Example 36, 4-(Aminomethyl)-2-{[1-(trans-4-methylcyclohexyl)-1H-imidazol-4-yl]methyl}hexanoic acid hydrochloride], the IC50 turned out to be 10 nM.
Same read-out and setting: the result for `NCCCC(Cc1cn(C2C3CC4CC(C3)CC2C4)cn1)C(=O)O` (stereo not shown) [Example 13, 2-[(1-Adamantan-2-yl-1H-imidazol-4-yl)methyl]-5-aminovaleric acid] reads 12 nM; that for `C[C@H](CN)C[C@@H](Cc1cn([C@H]2CC[C@H](C)CC2)cn1)C(=O)O` [34(2S,4S form), (2S,4S)-5-Amino-4-methyl-2-{[1-(trans-4-methylcyclohexyl)-1H-imidazol-4-yl]methyl}valeric acid], 5.4 nM.
In turn, `C[C@@H](CN)C[C@H](Cc1cn([C@H]2CC[C@H](C)CC2)cn1)C(=O)O` [35(2R,4R form), (2R,4R)-5-Amino-4-methyl-2-{[1-(trans-4-methylcyclohexyl)-1H-imidazol-4-yl]methyl}valeric acid] returned an IC50 above 100 nM.
Regarding `NCCCC(Cc1cn([C@@H]2CC3CCC2C3)cn1)C(=O)O` (stereo partly drawn) [Example 11, 5-Amino-2-({1-[exo-bicyclo[2.2.1]hept-2-yl]-1H-imidazol-4-yl}methyl)valeric acid], inhibition was half-maximal at 14 nM (IC50).
Compound `NCCCC(Cc1cn([C@H]2CC[C@H](Oc3ccncc3)CC2)cn1)C(=O)O` (stereo partly drawn) [Example 38, 5-Amino-2-({1-[trans-4-(pyridin-4-yloxy)cyclohexyl]-1H-imidazol-4-yl}methyl)valeric acid hydrochloride] came in with an IC50 of 9.8 nM.
`NCCCC(Cc1cn([C@H]2CC[C@H](Oc3ccccc3)CC2)cn1)C(=O)O` (stereo partly drawn) [Example 14, 5-Amino-2-{[1-(trans-4-phenoxycyclohexyl)-1H-imidazol-4-yl]methyl}valeric acid]: the midpoint of inhibition, the IC50, lay at 13 nM.
In turn, `C[C@H]1CC[C@H](n2cnc(C[C@@H](CCCN)C(=O)O)c2)CC1` [15(2R form), (2R)-5-Amino-2-{[1-(trans-4-methylcyclohexyl)-1H-imidazol-4-yl]methyl}valeric acid] displayed an IC50 above 100 nM.
`NCCCC(Cc1cn([C@H]2CC[C@@H](O)CC2)cn1)C(=O)O` (stereo partly drawn) [Example 37, 5-Amino-2-{[1-(cis-4-hydroxycyclohexyl)-1H-imidazol-4-yl]methyl}valeric acid] gave an IC50 of 19 nM.
Take `C[C@H]1CC[C@H](n2cnc(CC(CCCN)C(=O)O)c2)CC1` (stereo partly drawn) [Example 2, 5-Amino-2-{[1-(trans-4-methylcyclohexyl)-1H-imidazol-4-yl]methyl}valeric acid]: the IC50 worked out at 8.3 nM.
For `C[C@@H](CN)C[C@@H](Cc1cn([C@H]2CC[C@H](C)CC2)cn1)C(=O)O` [35(2S,4R form), (2S,4R)-5-Amino-4-methyl-2-{[1-(trans-4-methylcyclohexyl)-1H-imidazol-4-yl]methyl}valeric acid], the midpoint of inhibition, the IC50, lay at 5.1 nM.
On to `NCCCC(Cc1cn([C@H]2CC[C@H](O)CC2)cn1)C(=O)O` (stereo partly drawn) [Example 7, 5-Amino-2-{[1-(trans-4-hydroxycyclohexyl)-1H-imidazol-4-yl]methyl}valeric acid], for which the IC50 amounted to 26 nM.
`CC[C@H]1CC[C@H](n2cnc(CC(CCCN)C(=O)O)c2)CC1` (stereo partly drawn) [Example 3, 5-Amino-2-{[1-(trans-4-ethylcyclohexyl)-1H-imidazol-4-yl]methyl}valeric acid] yielded an IC50 of 8.8 nM.
On the same count and under the same terms, for `NCCCC(Cc1cn([C@@H]2C[C@H]3C[C@H]3C2)cn1)C(=O)O` (mixture of isomers) [Example 6, (2RS)-5-Amino-2-({1-[(1R,3s,5S)-bicyclo[3.1.0]hexan-3-yl]-1H-imidazol-4-yl}methyl)valeric acid] the value was 21 nM.
`C[C@H]1CC[C@@H](n2cnc(CC(CCCN)C(=O)O)c2)CC1` (stereo partly drawn) [Example 39, 5-Amino-2-{[1-(cis-4-methylcyclohexyl)-1H-imidazol-4-yl]methyl}valeric acid] returned an IC50 of 9.3 nM.
Compound `C[C@H]1CC[C@H](n2cnc(CC(OCCN)C(=O)O)c2)CC1` (stereo partly drawn) [Example 24, 2-(2-Aminoethoxy)-3-[1-(trans-4-methylcyclohexyl)-1H-imidazol-4-yl]propionic acid] gave an IC50 of 8.1 nM.
On the same count and under the same terms, for `NCCCC(Cc1cn(C2CCCCCC2)cn1)C(=O)O` (stereo not shown) [Example 10, 5-Amino-2-[(1-cycloheptyl-1H-imidazol-4-yl)methyl]valeric acid] the value was 21 nM; for `C[C@H](CN)OC(Cc1cn([C@H]2CC[C@H](C)CC2)cn1)C(=O)O` (stereo partly drawn) [Example 25, 2-[(1R)-2-Amino-1-methylethoxy]-3-[1-(trans-4-methylcyclohexyl)-1H-imidazol-4-yl]propionic acid], 7 nM.
Consider `NCCCC(Cc1cn(C2CCCCC2)cn1)C(=O)O` (stereo not shown) [Example 1, 5-Amino-2-[(1-cyclohexyl-1H-imidazol-4-yl)methyl]valeric acid], for which 21 nM corresponded to half-maximal inhibition (IC50).
The compound `C[C@H]1CC[C@H](n2cnc(C[C@H](CCCN)C(=O)O)c2)CC1` [15(2S form), (2S)-5-Amino-2-{[1-(trans-4-methylcyclohexyl)-1H-imidazol-4-yl]methyl}valeric acid] returned an IC50 of 7.8 nM.
Same read-out and setting: the result for `NCCCC(Cc1cn([C@H]2CC3CCC2C3)cn1)C(=O)O` (stereo partly drawn) [Example 12, 5-Amino-2-([1-[endo-bicyclo[2.2.1]hept-2-yl]-1H-imidazol-4-yl]methyl)valeric acid] reads 25 nM; that for `C[C@H](CN)C[C@H](Cc1cn([C@H]2CC[C@H](C)CC2)cn1)C(=O)O` [34(2R,4S form), (2R,4S)-5-Amino-4-methyl-2-{[1-(trans-4-methylcyclohexyl)-1H-imidazol-4-yl]methyl}valeric acid], 34 nM; that for `CC1CCCC(n2cnc(CC(CCCN)C(=O)O)c2)C1` (stereo not shown) [Example 9, 5-Amino-2-{[1-(3-methylcyclohexyl)-1H-imidazol-4-yl]methyl}valeric acid], 18 nM.
Same read-out and setting: the result for `CCC1CC(n2cnc(CC(CCCN)C(=O)O)c2)C1` (stereo not shown) [Example 4, 5-Amino-2-{[1-(3-ethylcyclobutyl)-1H-imidazol-4-yl]methyl}valeric acid] reads 14 nM; that for `C[C@H]1CC[C@H](n2cnc(C[C@H](CCCN)C(=O)O)c2)CC1` [Example 40, (2S)-5-Amino-2-{[1-(trans-4-methylcyclohexyl)-1H-imidazol-4-yl]methyl}valeric acid p-toluenesulfonate anhydrate], 2.6 nM.
Regarding `C[C@H]1CC[C@H](n2cnc(CC(C(=O)O)N3CC[C@H](N)C3)c2)CC1` (stereo partly drawn) [Example 26, 2-[(3S)-3-Aminopyrrolidin-1-yl]-3-[1-(trans-4-methylcyclohexyl)-1H-imidazol-4-yl]propionic acid], the IC50 came out at 21 nM.

The next experiment deals with iron chloride-induced thrombus models.
Assay: not given
The following applies: mice, intravenous administration; cited from earlier work.
With “potato carboxypeptidase inhibitor (PCI): TAFIa-inhibiting polypeptide consisting of 39 amino acids (QQHADPICNKPCKTHDDCSGAWFCQACWNSARTCGPYVG; UniProt P01075 1-39, looked up)”, the antithrombotic effect result is given as “antithrombotic effect”.

(Values after patent publication US8609710B2, “Cycloalkyl-substituted imidazole derivative” (Daiichi Sankyo Company, Limited, priority 2010, dated 2013).)
